“And” between values parts separate entries of the source, which are not always exact repeats. Equal entries are not always repeated. Where two headings read alike, the source gives them in different places.
Legend:
PfcProRS = target: T1, PfcProRS (Plasmodium falciparum, UniProt Q8I5R7); type: binding; settings: for dose-response signal (normalized), SI Fig 8: single replicates
T1 construct: made in house; host or cells: E. coli SoluBL-21

[1] = tested on: halofuginone-induced P. falciparum (elevated proline homeostasis); test: P. falciparum ABS growth assay, SYBR Green, 72 h, halofuginone-induced parasites; type: cell-based, Plasmodium falciparum; settings: Halofuginone-Induced (HFG-Induced)
Summary of the method: (§1)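 Dd2-derived P. falciparum lines (HFGR-I, halofuginone-induced) at 1% parasitemia and 1% hematocrit in RPMI + 0.5% Albumax were exposed to compounds in triplicate dose-response for 72 h. Growth was read as SYBR Green 1 fluorescence, with 10 μM dihydroartemisinin as kill control and compound-free wells as growth control.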

[2] = tested on: HFGR-I P. falciparum (elevated proline homeostasis and PfcProRS^L482H); test: P. falciparum ABS growth assay, SYBR Green, 72 h, HFGR-I parasites; type: cell-based, Plasmodium falciparum; settings: HFGR-I
Summary of the method: as §1

P. falciparum Dd2-2D4 = test: P. falciparum asexual blood stage (ABS) growth assay, SYBR Green, 72 h, wild-type parasites; type: cell-based, Plasmodium falciparum; settings: for ABS growth dose-response, normalized signal (Replicates 1-3): Dd2-2D4
Experimental: Parasites were maintained under standard culture conditions as described previously[56],[57]. […] The P. falciparum Dd2 cell lines used in this study (Dd2-2D4, halofuginone-induced, and HFGR-I) have previously undergone whole genome sequencing in our labs.
This assay was performed as previously described[8]. In short, P. falciparum erythrocytic-stage parasites at 1% parasitemia and 1% hematocrit in RPMI + 0.5% Albumax were seeded at 40 μL/well in 384-well plates with test compounds in triplicate, dose-response format with 10 μM dihydroartemisinin as a kill-control and blank (no compound) wells as a growth-control. […] After 72 h, growth was quantified by measuring fluorescence (Molecular Devices SpectraMax iD5) following SYBR Green 1 staining. Data were analyzed in Excel and plotted in PRISM (V. 8.4.3–9.1.0, GraphPad).

HsProRS = HsProRS (Homo sapiens, UniProt P07814); test: TR-FRET ligand displacement assay with tracer MAT379 (CoraFluor-1-Halo and anti-His6 antibody formats); type: binding; set-up: made in house; host or cells: E. coli SoluBL-21; settings: for TR-FRET dose-response, normalized signal (SI Fig 11): individual replicates
Chain of HsProRS (P07814 996-1512): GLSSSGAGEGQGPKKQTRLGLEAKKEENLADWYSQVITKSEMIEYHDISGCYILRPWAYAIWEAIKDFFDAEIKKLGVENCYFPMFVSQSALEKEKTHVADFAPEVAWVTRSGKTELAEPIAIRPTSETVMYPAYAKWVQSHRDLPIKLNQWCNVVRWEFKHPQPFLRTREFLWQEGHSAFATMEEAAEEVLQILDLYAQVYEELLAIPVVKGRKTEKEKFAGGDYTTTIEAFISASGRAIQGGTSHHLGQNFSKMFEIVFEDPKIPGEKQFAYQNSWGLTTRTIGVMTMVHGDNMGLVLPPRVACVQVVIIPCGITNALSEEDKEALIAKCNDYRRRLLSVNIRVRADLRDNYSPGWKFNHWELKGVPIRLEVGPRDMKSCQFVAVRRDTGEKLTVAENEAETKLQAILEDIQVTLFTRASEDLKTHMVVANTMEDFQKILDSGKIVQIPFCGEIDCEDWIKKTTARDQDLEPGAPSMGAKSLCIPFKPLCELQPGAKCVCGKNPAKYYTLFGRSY

T1 sequence (Q8I5R7 249-746): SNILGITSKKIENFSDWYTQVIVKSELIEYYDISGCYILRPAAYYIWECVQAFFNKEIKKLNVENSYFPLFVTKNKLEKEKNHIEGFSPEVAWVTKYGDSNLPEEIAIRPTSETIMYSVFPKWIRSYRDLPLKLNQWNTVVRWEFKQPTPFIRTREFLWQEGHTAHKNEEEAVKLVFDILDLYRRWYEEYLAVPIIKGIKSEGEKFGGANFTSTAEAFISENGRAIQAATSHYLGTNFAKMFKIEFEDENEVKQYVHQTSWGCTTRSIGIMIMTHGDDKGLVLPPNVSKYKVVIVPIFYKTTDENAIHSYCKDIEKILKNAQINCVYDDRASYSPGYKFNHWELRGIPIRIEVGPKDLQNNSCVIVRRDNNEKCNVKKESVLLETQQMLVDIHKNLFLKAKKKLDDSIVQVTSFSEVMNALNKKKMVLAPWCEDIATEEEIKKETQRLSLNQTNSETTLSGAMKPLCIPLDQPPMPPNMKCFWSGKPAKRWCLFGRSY

## CC(C)(C)OC(=O)NC1CCN(C(=O)Nc2nccnc2C(=O)NC2Cc3ccccc3C2)CC1 [compound 7]
PfcProRS; Log[inhibitor] (M) -5.000
  dose-response signal (normalized), SI Fig 8: 9.23E-03 and -2.50E-03 and -6.65E-02
PfcProRS; Log[inhibitor] (M) -5.301
  dose-response signal (normalized), SI Fig 8: -5.43E-02 and 1.65E-02 and -1.76E-02
PfcProRS; Log[inhibitor] (M) -5.601
  dose-response signal (normalized), SI Fig 8: 6.03E-02 and 2.26E-02 and 5.28E-02
PfcProRS; Log[inhibitor] (M) -5.904
  dose-response signal (normalized), SI Fig 8: 2.65E-02 and 5.41E-02 and 9.36E-02
PfcProRS; Log[inhibitor] (M) -6.208
  dose-response signal (normalized), SI Fig 8: 2.38E-02 and 1.39E-01 and 9.30E-02
PfcProRS; Log[inhibitor] (M) -6.509
  dose-response signal (normalized), SI Fig 8: 2.08E-01 and 1.27E-01 and 1.08E-01
PfcProRS; Log[inhibitor] (M) -6.796
  dose-response signal (normalized), SI Fig 8: 2.54E-01 and 2.41E-01 and 3.20E-01
PfcProRS; Log[inhibitor] (M) -7.108
  dose-response signal (normalized), SI Fig 8: 4.18E-01 and 3.78E-01 and 4.14E-01
PfcProRS; Log[inhibitor] (M) -7.409
  dose-response signal (normalized), SI Fig 8: 5.88E-01 and 6.84E-01 and 5.75E-01
PfcProRS; Log[inhibitor] (M) -7.710
  dose-response signal (normalized), SI Fig 8: 7.68E-01 and 7.32E-01 and 7.90E-01
PfcProRS; Log[inhibitor] (M) -8.000
  dose-response signal (normalized), SI Fig 8: 9.75E-01 and 1.04E+00 and 8.35E-01
PfcProRS; Log[inhibitor] (M) -8.301
  dose-response signal (normalized), SI Fig 8: 9.24E-01 and 9.28E-01 and 8.42E-01
PfcProRS; Log[inhibitor] (M) -8.602
  dose-response signal (normalized), SI Fig 8: 1.04E+00 and 8.85E-01 and 9.51E-01
PfcProRS; Log[inhibitor] (M) -9.000
  dose-response signal (normalized), SI Fig 8: 1.00E+00 and 1.08E+00 and 9.49E-01
PfcProRS; Log[inhibitor] (M) -9.301
  dose-response signal (normalized), SI Fig 8: 9.78E-01 and 9.98E-01 and 9.79E-01
PfcProRS; SI Fig 16a, values on -log scale
  PfcProRS -- best Kd: 7.883
PfcProRS; read-out: PfcProRS (KD [nM]) + proline
  Kd: 13.2 nM
[1]; Log[inhibitor] (M) -5.000
  ABS growth dose-response, normalized signal (Replicates 1-3): 8 and 7 and 3
[1]; Log[inhibitor] (M) -5.301
  ABS growth dose-response, normalized signal (Replicates 1-3): 22 and 9 and 15
[1]; Log[inhibitor] (M) -5.602
  ABS growth dose-response, normalized signal (Replicates 1-3): 34 and 37 and 32
[1]; Log[inhibitor] (M) -5.903
  ABS growth dose-response, normalized signal (Replicates 1-3): 93 and 89 and 84
[1]; Log[inhibitor] (M) -6.204
  ABS growth dose-response, normalized signal (Replicates 1-3): 92 and 98 and 96
[1]; Log[inhibitor] (M) -6.505
  ABS growth dose-response, normalized signal (Replicates 1-3): 98 and 96 and 105
[1]; Log[inhibitor] (M) -6.806
  ABS growth dose-response, normalized signal (Replicates 1-3): 103 (2×) and 107
[1]; Log[inhibitor] (M) -7.107
  ABS growth dose-response, normalized signal (Replicates 1-3): 109 (2×) and 104
[1]; Log[inhibitor] (M) -7.408
  ABS growth dose-response, normalized signal (Replicates 1-3): 106 and 107 and 102
[1]; Log[inhibitor] (M) -7.709
  ABS growth dose-response, normalized signal (Replicates 1-3): 107 and 106 and 101
[1]; Log[inhibitor] (M) -8.010
  ABS growth dose-response, normalized signal (Replicates 1-3): 100 and 99 and 106
[1]; Log[inhibitor] (M) -8.311
  ABS growth dose-response, normalized signal (Replicates 1-3): 109 and 100 and 99
[2]; Log[inhibitor] (M) -5.000
  ABS growth dose-response, normalized signal (Replicates 1-3): 7 (2×) and 6
[2]; Log[inhibitor] (M) -5.301
  ABS growth dose-response, normalized signal (Replicates 1-3): 18 and 21 and 24
[2]; Log[inhibitor] (M) -5.602
  ABS growth dose-response, normalized signal (Replicates 1-3): 51 and 50 and 48
[2]; Log[inhibitor] (M) -5.903
  ABS growth dose-response, normalized signal (Replicates 1-3): 103 and 100 and 102
[2]; Log[inhibitor] (M) -6.204
  ABS growth dose-response, normalized signal (Replicates 1-3): 99 and 103 and 101
[2]; Log[inhibitor] (M) -6.505
  ABS growth dose-response, normalized signal (Replicates 1-3): 106 and 103 and 101
[2]; Log[inhibitor] (M) -6.806
  ABS growth dose-response, normalized signal (Replicates 1-3): 100 and 103 and 108
[2]; Log[inhibitor] (M) -7.107
  ABS growth dose-response, normalized signal (Replicates 1-3): 110 and 105 and 104
[2]; Log[inhibitor] (M) -7.408
  ABS growth dose-response, normalized signal (Replicates 1-3): 103 and 110 and 105
[2]; Log[inhibitor] (M) -7.709
  ABS growth dose-response, normalized signal (Replicates 1-3): 107 and 102 and 105
[2]; Log[inhibitor] (M) -8.010
  ABS growth dose-response, normalized signal (Replicates 1-3): 102 and 103 and 101
[2]; Log[inhibitor] (M) -8.311
  ABS growth dose-response, normalized signal (Replicates 1-3): 104 (2×) and 102
P. falciparum Dd2-2D4; Log[inhibitor] (M) -5.000
  ABS growth dose-response, normalized signal (Replicates 1-3): 1
P. falciparum Dd2-2D4; Log[inhibitor] (M) -5.301
  ABS growth dose-response, normalized signal (Replicates 1-3): 1
P. falciparum Dd2-2D4; Log[inhibitor] (M) -5.602
  ABS growth dose-response, normalized signal (Replicates 1-3): 1
P. falciparum Dd2-2D4; Log[inhibitor] (M) -5.903
  ABS growth dose-response, normalized signal (Replicates 1-3): 1
P. falciparum Dd2-2D4; Log[inhibitor] (M) -6.505
  ABS growth dose-response, normalized signal (Replicates 1-3): 1
P. falciparum Dd2-2D4; Plasmodium falciparum, DD2, SI Fig 16b, values on -log scale, read-out: ABS - Dd2-2D4 (converted)
  EC50: 90.6 nM
HsProRS; HsProRS (KD [nM]) + proline, 100 μM proline, 250 nM MAT379
  Kd: 34.8 nM
HsProRS; HsProRS - best Kd, SI Fig 16a, values on -log scale
  Kd: 22.1 nM
HsProRS; Log[inhibitor] (M) -5.000
  normalized TR-FRET ligand displacement signal, dose-response replicates (SI Fig 6): -1.10E-01 and -3.98E-02 and -5.51E-02
  TR-FRET dose-response, normalized signal (SI Fig 11): 5.88E-02 and 4.63E-03 and 1.20E-02
HsProRS; Log[inhibitor] (M) -5.301
  normalized TR-FRET ligand displacement signal, dose-response replicates (SI Fig 6): -3.29E-02 and -2.98E-02 and -2.55E-02
  TR-FRET dose-response, normalized signal (SI Fig 11): 8.22E-04 and 1.04E-02 and 2.94E-02
HsProRS; Log[inhibitor] (M) -5.601
  normalized TR-FRET ligand displacement signal, dose-response replicates (SI Fig 6): -4.70E-04 and 4.94E-02 and -1.17E-02
  TR-FRET dose-response, normalized signal (SI Fig 11): 2.44E-02 and 7.65E-03 and 4.65E-02
HsProRS; Log[inhibitor] (M) -5.904
  normalized TR-FRET ligand displacement signal, dose-response replicates (SI Fig 6): -2.26E-02 and 7.29E-03 and -6.02E-02
  TR-FRET dose-response, normalized signal (SI Fig 11): 5.49E-02 and 5.79E-02 and 5.68E-02
HsProRS; Log[inhibitor] (M) -6.208
  normalized TR-FRET ligand displacement signal, dose-response replicates (SI Fig 6): 5.82E-02 and 7.95E-02 and 2.06E-02
  TR-FRET dose-response, normalized signal (SI Fig 11): 4.71E-02 and 4.91E-02 and 7.38E-02
HsProRS; Log[inhibitor] (M) -6.509
  normalized TR-FRET ligand displacement signal, dose-response replicates (SI Fig 6): 1.24E-02 and 1.36E-01 and 1.19E-01
  TR-FRET dose-response, normalized signal (SI Fig 11): 1.27E-01 and 1.07E-01 and 8.54E-02
HsProRS; Log[inhibitor] (M) -6.796
  normalized TR-FRET ligand displacement signal, dose-response replicates (SI Fig 6): 2.14E-01 and 2.70E-01 and 2.50E-01
  TR-FRET dose-response, normalized signal (SI Fig 11): 1.74E-01 and 1.79E-01 and 1.50E-01
HsProRS; Log[inhibitor] (M) -7.108
  normalized TR-FRET ligand displacement signal, dose-response replicates (SI Fig 6): 3.41E-01 and 3.62E-01 and 3.83E-01
  TR-FRET dose-response, normalized signal (SI Fig 11): 2.66E-01 and 2.89E-01 and 3.00E-01
HsProRS; Log[inhibitor] (M) -7.409
  normalized TR-FRET ligand displacement signal, dose-response replicates (SI Fig 6): 5.14E-01 and 5.24E-01 and 5.91E-01
  TR-FRET dose-response, normalized signal (SI Fig 11): 4.26E-01 and 3.87E-01 and 4.16E-01
HsProRS; Log[inhibitor] (M) -7.710
  normalized TR-FRET ligand displacement signal, dose-response replicates (SI Fig 6): 7.15E-01 and 7.22E-01 and 6.26E-01
  TR-FRET dose-response, normalized signal (SI Fig 11): 5.82E-01 and 5.49E-01 and 5.55E-01
HsProRS; Log[inhibitor] (M) -8.000
  normalized TR-FRET ligand displacement signal, dose-response replicates (SI Fig 6): 9.10E-01 and 9.20E-01 and 8.83E-01
  TR-FRET dose-response, normalized signal (SI Fig 11): 7.19E-01 and 6.97E-01 and 7.02E-01
HsProRS; Log[inhibitor] (M) -8.301
  normalized TR-FRET ligand displacement signal, dose-response replicates (SI Fig 6): 9.29E-01 and 8.45E-01 and 8.62E-01
  TR-FRET dose-response, normalized signal (SI Fig 11): 8.41E-01 and 8.30E-01 and 7.96E-01
HsProRS; Log[inhibitor] (M) -8.602
  normalized TR-FRET ligand displacement signal, dose-response replicates (SI Fig 6): 1.00E+00 and 9.03E-01 and 8.98E-01
  TR-FRET dose-response, normalized signal (SI Fig 11): 8.68E-01 and 8.38E-01 and 8.61E-01
HsProRS; Log[inhibitor] (M) -9.000
  normalized TR-FRET ligand displacement signal, dose-response replicates (SI Fig 6): 9.68E-01 and 8.42E-01 and 9.66E-01
  TR-FRET dose-response, normalized signal (SI Fig 11): 9.12E-01 and 9.38E-01 and 9.42E-01
HsProRS; Log[inhibitor] (M) -9.301
  normalized TR-FRET ligand displacement signal, dose-response replicates (SI Fig 6): 9.89E-01 and 9.63E-01 and 1.01E+00
  TR-FRET dose-response, normalized signal (SI Fig 11): 9.41E-01 and 9.42E-01 and 9.34E-01
